Reference: patent publication US6593335B1, “Potassium channel openers” (Abbott Laboratories, priority 1997, dated 2003)

Key:
potassium channels [1] = molecular target: potassium channels (Sus scrofa, UniProt F1SR11); assay: Functional potassium channel opening activity in isolated Landrace pig bladder strips (field-stimulated twitch); conditions: for Landrace Pig Bladder Index: ED50 for P1075 divided by ED50 for the test agonist, averaged over tissues; for Landrace Pig Bladder pD2: negative logarithm of ED50
Procedure, shortened: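 Landrace pig bladder strips with the mucosa removed were field-stimulated (0.05 Hz, 0.5 ms, 20 V) in Krebs Ringer bicarbonate containing propranolol, and primed with 80 mM KCl. Cumulative concentration-response curves gave maximal efficacy relative to a reference potassium channel opener, pD2, and a potency index (reference ED50/test ED50) averaged across tissues.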

Male CD rats = assay: In-vivo bladder efficacy protocol (isovolumetric contractions model); parameters: species or system rat
Description: The utility of compounds of the inyention for the treatment of urinary incontinence, bladder overactivity and bladder instability is illustrated by the ability of compounds of the inyention to affect bladder contractions in-vivo. The following method is illustrative of the in-vivo bladder efficacy of compounds of the inyention. In-vivo bladder efficacy protocol (isovolumetric contractions model) Male CD rats (400-450 g) were anesthetized with urethane (0.6 gikg ip +0.6 g/kg sc). The left femoral vein was cannulated with polyethylene (PE-50) tubing for test compound administration. […] The bladder was emptied via this catheter and additionally by applying slight manual pressure on the lower abdomen. The urinary catheter was connected using a Y-tube connector to both a pressure transducer and a syringe pump. The urethra was then ligated using 4-0 silk suture and the bladder was slowly filled using a constant infusion of room temperature saline at the rate of 0.1 ml/min until spontaneous rhythmic contractions were evident (1.0 -1.3 ml). […] Then three doses of a test compound were administered cumulatively iv at 20 minute intervals. […] Area under the curve (AUC) of the bladder contractions was determined from the respective waveforms using a Modular Instruments, Inc. computerized data acquisition system and averaged over the last ten minutes of each twenty minute period.

potassium channels [2] = molecular target: potassium channels (Cavia porcellus, UniProt A0A286XYR9); assay: Membrane hyperpolarization (MHP) assay in primary cultured guinea-pig urinary bladder (GPB) cells, DiBAC(4)3 FLIPR; type: cell-based; conditions: for EC50: concentration that elicits 50% of the maximal response for the test sample; for MHP in GPB Cells Maximal Response (% P1075): maximal steady-state hyperpolarization relative to reference P1075 (assigned as 100%)
Experimental: Determination of Potassium Channel Opening Activity Membrane Hyperpolarization Assays Compounds were evaluated for potassium channel opening activity using the rat thoracic aorta smooth muscle AI 0 cell line or primary cultured guinea-pig urinary bladder (GPB) cells. The AI0 cell line was purchased from the American Type Culture Collection (Rockville, MD; Cat # 30-2002). […] Louis, MO) and 0.2 mg/mL ronase (Calbiochem, La Jolla, CA) with continuous stirring in a cell incubator for 30 minutes. The mixture was then centrifuged at 1300 x g for 5 minutes, and the pellet resuspended in Dulbecco's PBS (GIBCO, Gaithersburg, MD) and recentrifuged to remove residual enzyme. […] Cells were confirmed to be of smooth muscle type by cytoskeletal staining using a monoclonal mouse anti human-a-smooth muscle actin (Biomeda, Foster City, CA). Functional activity at potassium channels was measured by evaluating changes in membrane potential using the bis-oxonol dye DiBAC(4)3 (Molecular Probes) in a 96-well cell-based kinetic assay system, Fluorescent Imaging Plate Reader (FLIPR) (K.S. Schroeder et al., J. Biomed. Screen., v. I pp. 75-81 (1996)). DiBAC(4)3 is an anionic potentiometric probe which partitions between cells and extracellular solution in a membrane potential-dependent manner. With increasing membrane potential (for example, K+depolarization), the probe further partitions into the cell; this is measured as an increase in fluorescence due to dye interaction with intracellular lipids and proteins. Conyersely, decreasing membrane potential (hyperpolarization by potassium channel openers) evokes a decrease in fluorescence. […] HEPES, 20; NaCl, 120; KCl, 2; CaC'2, 2; MgCl2, 1; glucose, 5; pH 7.4 at 25 ° C.) containing 5 µM DiBAC(4)3 and incubated with […] of the buffer in a cell incubator for 30 minutes at 37 OC to ensure dye distribution across the membrane. After recording the baseline fluorescence for 5 minutes, the reference or test compounds, prepared at 10 times the concentration in the assay buffer, were added directly to the wells. Changes in fluorescence were monitored for an additional 25 minutes. […] Pharmacol., v. 43 pp. 474-481 (1993)). Routinely, five concentrations of […] or test compounds (log or half-log dilutions) were evaluated and the maximal steady-state hyperpolarization values (expressed as % relative to […]) plotted as a function of concentration. […] The maximal response of each compound (expressed as % relative to […]) is reported.

potassium channels [3] = molecular target: potassium channels (Rattus norvegicus, UniProt Q63563); assay: Membrane hyperpolarization (MHP) assay in A10 cells, DiBAC(4)3 FLIPR; type: cell-based; conditions: for EC50: concentration that elicits 50% of the maximal response for the test sample; for MHP in A10 Cells Maximal Response (% P1075): maximal steady-state hyperpolarization relative to reference P1075 (assigned as 100%)
Experimental: Determination of Potassium Channel Opening Activity Membrane Hyperpolarization Assays Compounds were evaluated for potassium channel opening activity using the rat thoracic aorta smooth muscle AI 0 cell line or primary cultured guinea-pig urinary bladder (GPB) cells.
The AI0 cell line was purchased from the American Type Culture Collection (Rockville, MD; Cat # 30-2002). Cells were grown in 96-well clear-bottomed black plates (Packard) in culture media (composition: Dulbecco′s modified Eagle′s medium supplemented with 20% Fetal Bovine Serum, 100 units/mL penicillin, 100 units/mL streptomycin and 0.25 […]) at 37 ° C. with 5% C02 in a humidified chamber to form a confluent monolayer. 25 For the preparation of urinary bladder smooth muscle cells, urinary bladders were removed from male guinea-pigs (Hartley, Charles River, Wilmington, MA) weighing 300-400 g and placed in ice-cold Ca^2+-free Krebs solution (Composition, mM: KCl, 2.7; KH2PO4, 1.5; NaCl, 75; Na2HPO4, 9.6; Na2HPO4.7H2O, 8; MgSO4, 2; glucose, 5;HEPES, 10; pH 7.4). Cells were isolated by enzymatic dissociation as previously escribed with minor modifications (Klockner, U. and Isenberg, G., Pflugers Arch. 1985, 05, 329-339). The bladder was cut into small sections and incubated in 5 mL of the reb′s solution containing I mg/mL collagenase (Sigma, St. Louis, MO) and 0.2 mg/mL ronase (Calbiochem, La Jolla, CA) with continuous stirring in a cell incubator for 30 minutes. […]
Functional activity at potassium channels was measured by evaluating changes in membrane potential using the bis-oxonol dye DiBAC(4)3 (Molecular Probes) in a 96-well cell-based kinetic assay system, Fluorescent Imaging Plate Reader (FLIPR) (K.S. Schroeder et al., J. Biomed. Screen., v. I pp. 75-81 (1996)). […] With increasing membrane potential (for example, K+depolarization), the probe further partitions into the cell; this is measured as an increase in fluorescence due to dye interaction with intracellular lipids and proteins.
Conyersely, decreasing membrane potential (hyperpolarization by potassium channel openers) evokes a decrease in fluorescence.
Confluent smooth muscle A10 or guinea-pig urinary bladder cells cultured in black clear-bottomed 96-well plates were rinsed twice with […] assay buffer (composition, mM: HEPES, 20; NaCl, 120; KCl, 2; CaC′2, 2; MgCl2, 1; glucose, 5; pH 7.4 at 25 ° C.) containing 5 µM DiBAC(4)3 and incubated with […] of the buffer in a cell incubator for 30 minutes at 37 OC to ensure dye distribution across the membrane. After recording the baseline fluorescence for 5 minutes, the reference or test compounds, prepared at 10 times the concentration in the assay buffer, were added directly to the wells. Changes in fluorescence were monitored for an additional 25 minutes. […]

potassium channels [4] = molecular target: potassium channels (Homo sapiens, UniProt O60706); assay: Functional potassium channel opening activity in isolated human bladder strips (25 mM KCl contracted)
Experimental: Human bladders were obtained from women greater than 45 years old. The human tissue was obtained from the Anatomic Gift Foundation, Phoenix AZ. Human tissue was received via overnight delivery on wet ice placed into Krebs Ringer bicarbonate solution (composition, mM: NaCl, 120; NaHCO3, 20; dextrose, 11; KCl, 4.7; 20 CaC′2, 2.5; MgSO4, 1.5; KH2PO4, 1.2; K2EDTA, 0.01, equilibrated with 5% C02/95% 02 pH 7.4 at 37 ° C.). Propranolol (0.004 mM) was included in all of the assays to block […]. The trigonal and dome portions were discarded. Strips 3-5 mm wide and 20 mm long were prepared from the remaining tissue cut in a circular fashion. The mucosal layer was removed. For the human detrusor strips the tissues were contracted 25 with 25 mM KCl which produced a steady state tension of approximately 400 centigrams. […]
After a 60 minute rinsing period, a concentration response curve (cumulative) was 30 generated for the test agonist in the same fashion as that used for the control agonist P1075. The maxximal efficacies of the compounds (expressed as % relative to P1075) are reported. […] Agonist potencies were also expressed as an index relative to PI1075. The index was calculated by dividing the ED50 for P1075 by the ED50 for the test agonist in a given tissue. […]

[5] = maximal efficacy relative to P1075, field stimulation 0.05Hz, 0.5 milli-seconds at 20 volts

Chain of potassium channels (Cavia porcellus, UniProt A0A286XYR9) (A0A286XYR9 1-1546): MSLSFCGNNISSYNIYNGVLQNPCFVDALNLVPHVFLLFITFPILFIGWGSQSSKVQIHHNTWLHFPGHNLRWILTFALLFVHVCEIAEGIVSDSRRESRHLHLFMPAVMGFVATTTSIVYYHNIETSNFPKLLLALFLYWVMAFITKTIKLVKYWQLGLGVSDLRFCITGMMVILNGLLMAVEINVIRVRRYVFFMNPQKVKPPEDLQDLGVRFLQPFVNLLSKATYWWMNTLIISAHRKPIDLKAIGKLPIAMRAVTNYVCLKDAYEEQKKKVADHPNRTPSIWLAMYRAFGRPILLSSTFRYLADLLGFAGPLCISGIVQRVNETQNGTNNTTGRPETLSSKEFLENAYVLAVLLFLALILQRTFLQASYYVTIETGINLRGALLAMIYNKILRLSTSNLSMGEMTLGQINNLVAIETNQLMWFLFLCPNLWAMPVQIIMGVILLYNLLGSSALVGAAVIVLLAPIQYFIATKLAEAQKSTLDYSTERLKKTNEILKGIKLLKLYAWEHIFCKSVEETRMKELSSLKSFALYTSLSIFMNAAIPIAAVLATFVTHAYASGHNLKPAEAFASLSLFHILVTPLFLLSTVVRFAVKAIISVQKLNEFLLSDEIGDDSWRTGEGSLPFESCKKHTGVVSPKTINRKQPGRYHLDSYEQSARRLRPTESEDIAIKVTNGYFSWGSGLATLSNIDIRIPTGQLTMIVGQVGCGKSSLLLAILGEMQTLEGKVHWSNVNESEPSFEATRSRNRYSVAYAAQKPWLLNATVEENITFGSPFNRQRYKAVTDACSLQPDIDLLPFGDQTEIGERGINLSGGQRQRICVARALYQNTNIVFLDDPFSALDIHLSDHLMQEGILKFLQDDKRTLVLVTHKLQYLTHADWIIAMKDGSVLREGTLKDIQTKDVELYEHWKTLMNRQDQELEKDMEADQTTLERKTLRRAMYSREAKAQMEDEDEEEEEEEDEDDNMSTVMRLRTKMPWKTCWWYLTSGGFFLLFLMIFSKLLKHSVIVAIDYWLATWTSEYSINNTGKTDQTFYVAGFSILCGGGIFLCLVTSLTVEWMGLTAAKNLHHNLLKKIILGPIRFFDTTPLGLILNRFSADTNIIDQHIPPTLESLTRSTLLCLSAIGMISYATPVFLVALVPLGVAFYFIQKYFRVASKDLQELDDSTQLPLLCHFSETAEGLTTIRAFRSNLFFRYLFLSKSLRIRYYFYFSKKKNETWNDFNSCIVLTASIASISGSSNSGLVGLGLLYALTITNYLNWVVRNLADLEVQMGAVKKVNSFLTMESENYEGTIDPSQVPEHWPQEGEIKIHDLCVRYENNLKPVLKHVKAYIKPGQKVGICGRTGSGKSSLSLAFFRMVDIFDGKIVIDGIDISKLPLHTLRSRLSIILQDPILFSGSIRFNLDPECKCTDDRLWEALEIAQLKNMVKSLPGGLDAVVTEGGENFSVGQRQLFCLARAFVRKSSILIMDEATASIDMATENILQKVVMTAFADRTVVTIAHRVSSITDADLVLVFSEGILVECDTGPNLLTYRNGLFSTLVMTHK
Chain of potassium channels (Cavia porcellus, UniProt A0A286XYR9) (Q9JHJ9 whole entry partner): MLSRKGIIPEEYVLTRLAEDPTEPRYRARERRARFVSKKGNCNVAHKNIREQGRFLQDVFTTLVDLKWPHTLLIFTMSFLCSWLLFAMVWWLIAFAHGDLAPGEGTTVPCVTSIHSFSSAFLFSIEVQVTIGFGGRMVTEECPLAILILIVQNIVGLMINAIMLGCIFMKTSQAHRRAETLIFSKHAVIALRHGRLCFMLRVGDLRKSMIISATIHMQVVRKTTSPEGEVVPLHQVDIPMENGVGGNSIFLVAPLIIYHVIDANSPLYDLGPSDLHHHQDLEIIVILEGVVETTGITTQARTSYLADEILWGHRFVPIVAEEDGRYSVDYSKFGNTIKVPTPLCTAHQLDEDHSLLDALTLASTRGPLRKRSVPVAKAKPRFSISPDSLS
Chain of potassium channels (Rattus norvegicus, UniProt Q63563) (Q63563 whole entry): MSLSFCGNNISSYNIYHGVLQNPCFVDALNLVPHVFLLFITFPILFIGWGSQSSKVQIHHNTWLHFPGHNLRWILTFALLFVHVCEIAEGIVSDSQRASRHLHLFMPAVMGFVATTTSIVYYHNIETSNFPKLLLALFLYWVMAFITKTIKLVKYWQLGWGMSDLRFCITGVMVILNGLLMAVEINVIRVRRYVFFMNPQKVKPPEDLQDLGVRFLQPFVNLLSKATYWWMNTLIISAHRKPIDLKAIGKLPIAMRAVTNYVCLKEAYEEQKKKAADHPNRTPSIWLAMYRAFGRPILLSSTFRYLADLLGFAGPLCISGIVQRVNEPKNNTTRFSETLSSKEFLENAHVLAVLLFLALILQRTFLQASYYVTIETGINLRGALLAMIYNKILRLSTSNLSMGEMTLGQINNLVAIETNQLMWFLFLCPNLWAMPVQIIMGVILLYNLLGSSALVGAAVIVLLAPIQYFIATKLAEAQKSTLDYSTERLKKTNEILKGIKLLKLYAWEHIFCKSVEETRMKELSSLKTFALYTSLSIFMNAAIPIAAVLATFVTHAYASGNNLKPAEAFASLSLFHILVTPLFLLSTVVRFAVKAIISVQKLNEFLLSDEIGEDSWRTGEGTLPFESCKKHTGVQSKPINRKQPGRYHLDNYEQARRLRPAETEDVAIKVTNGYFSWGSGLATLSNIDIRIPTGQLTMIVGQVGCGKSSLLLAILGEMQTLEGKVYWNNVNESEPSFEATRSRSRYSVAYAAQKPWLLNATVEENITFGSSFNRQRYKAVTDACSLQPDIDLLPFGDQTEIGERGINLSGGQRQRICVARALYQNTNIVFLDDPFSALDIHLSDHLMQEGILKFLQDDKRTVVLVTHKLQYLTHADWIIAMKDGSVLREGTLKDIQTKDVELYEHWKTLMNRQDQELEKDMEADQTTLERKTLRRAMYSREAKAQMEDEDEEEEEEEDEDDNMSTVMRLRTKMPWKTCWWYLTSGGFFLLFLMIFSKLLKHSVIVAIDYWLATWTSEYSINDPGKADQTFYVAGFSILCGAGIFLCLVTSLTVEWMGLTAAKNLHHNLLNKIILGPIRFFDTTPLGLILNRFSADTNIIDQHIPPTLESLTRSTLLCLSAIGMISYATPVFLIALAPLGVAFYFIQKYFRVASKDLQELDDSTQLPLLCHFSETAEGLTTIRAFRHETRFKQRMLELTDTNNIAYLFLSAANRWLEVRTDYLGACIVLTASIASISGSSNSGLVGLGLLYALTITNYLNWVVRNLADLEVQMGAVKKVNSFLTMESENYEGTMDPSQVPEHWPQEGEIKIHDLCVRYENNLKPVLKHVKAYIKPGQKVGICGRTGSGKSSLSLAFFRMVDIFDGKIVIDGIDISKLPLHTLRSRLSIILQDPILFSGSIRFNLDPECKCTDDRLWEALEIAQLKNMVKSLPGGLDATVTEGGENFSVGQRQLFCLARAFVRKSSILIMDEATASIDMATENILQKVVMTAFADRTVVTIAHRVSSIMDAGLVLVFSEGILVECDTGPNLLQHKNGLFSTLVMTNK
Chain of potassium channels (Rattus norvegicus, UniProt Q63563) (Q63664 whole entry partner): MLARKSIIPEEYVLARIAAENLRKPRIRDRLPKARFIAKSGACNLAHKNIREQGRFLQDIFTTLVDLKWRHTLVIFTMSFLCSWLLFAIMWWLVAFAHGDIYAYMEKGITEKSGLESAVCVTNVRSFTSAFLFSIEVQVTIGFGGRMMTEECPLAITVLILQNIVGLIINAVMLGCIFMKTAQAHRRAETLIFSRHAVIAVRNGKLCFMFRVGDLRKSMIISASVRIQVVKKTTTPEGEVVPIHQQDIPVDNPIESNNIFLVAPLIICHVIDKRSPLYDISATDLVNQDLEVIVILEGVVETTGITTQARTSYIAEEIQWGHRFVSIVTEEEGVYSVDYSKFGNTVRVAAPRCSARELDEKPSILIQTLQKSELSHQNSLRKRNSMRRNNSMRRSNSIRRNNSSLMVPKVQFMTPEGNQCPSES

Structure (SMILES) | Landrace Pig Bladder Index (potassium channels [1]) | Landrace Pig Bladder Efficacy (% P1075) (potassium channels [1]; [5]) | Landrace Pig Bladder pD2 (potassium channels [1]) | reduction in bladder AUC (Male CD rats; iv, dose range of 0.01, 0.1) | AUC ED30 (dose required to reduce the area under the curve of the bladder contractions by 30% relative to control) (Male CD rats; urethane-anesthetized male CD rats, iv cumulative dosing) [µmol/kg] | EC50 (potassium channels [2]) [µM] | MHP in GPB Cells Maximal Response (% P1075) (potassium channels [2]) | EC50 (potassium channels [3]) [µM] | MHP in A10 Cells Maximal Response (% P1075) (potassium channels [3]) | Emax (potassium channels [1]; pig, maximal efficacy relative to P1075, field stimulation 0.05Hz, 0.5 milli-seconds at 20 volts) [%] | Emax (potassium channels [4]; human, maximal efficacy relative to P1075, detrusor strips contracted with 25 mM KCl) [%] | effect on stimulated twitch of pig bladder strips (potassium channels [1]; control agonist, concentration range of 10-9 to 10-′M, 1/2 log increments) | relaxation of human detrusor strips (potassium channels [4]; control agonist, 25 mM KCl contracted)
O=C1CCC2=C1C(c1ccc(F)c(Br)c1)C1=C(CCS1(=O)=O)N2 (single isomer, unassigned; (+)) [Example 87] | 0.90 | 100 | 7.5 | dose dependent reduction in bladder AUC | 0.06 |  |  |  |  |  |  |  | 
O=C1CCCC2=C1C(c1cccc(Br)c1)C1=C(CCCS1(=O)=O)N2 (stereo not shown) [Example 8, 10-(3-bromophenyl)-3,4,6,7,8,10-hexahydro-2H-thiopyrano [3,2-b]quinolin-9(5H)-one, 1,1-dioxide] | 0.025 | 95 | 5.0 |  |  | 2.5 | 100 | 7.5 | 66 |  |  |  | 
O=C1CCCC2=C1C(c1cccc(F)c1)C1=C(CCCS1(=O)=O)N2 (stereo not shown) [Example 11, 10-(3-fluorophenyl)-3,4,6,7,8,10-hexahydro-2H-thionyrano [3,2-b]quinolin-9(5H)-one, 1,1-dioxide] | 0.0021 | 100 | 4.1 |  |  | 20 | 29 | 11 | 42 |  |  |  | 
O=C1CCCC2=C1C(c1ccc(Cl)c([N+](=O)[O-])c1)C1=C(CCCS1(=O)=O)N2 (stereo not shown) [Example 19, 10-(4-chloro-3-nitrolphenyl)-3,4,6,7,8,10-hexahydro-2H-thiopyrano [3,2-b]quinolin-9(5H)-one, 1,1-dioxide] | 0.13 |  | 6.0 |  |  |  |  |  |  | 94 | 100 |  | 
CCC(C)(C)N=C(NC#N)Nc1cccnc1 [Example P1075, reference compound] |  |  |  |  |  |  |  |  |  |  |  | completely eliminated the stimulated twitch | complete relaxation
